Reference: patent publication US20240189312A1, “COMPOSITION FOR TREATING ACUTE BRAIN INJURY OR NEURODEGENERATIVE DISEASE, METHOD OF MAKING, AND USE THEREOF” (priority 2022, published 2024)
“Also recorded” adds a separate entry of the source.

Experiments:
[1] = molecular target: CYP46A (Homo sapiens, UniProt Q9Y6A2); conditions: cited from earlier work
[2] = test system: primary cultured mouse cortical neurons; assay: NMDA toxicity (neuronal loss, LDH release); format: cell-based; conditions: MK-801 10 μM
Description: (§1) Cultures of mouse primary cortical neurons were prepared as described previously and modified [Leng T D, Lin J, Sun H W, Zeng Z, O'Bryant Z, Inoue K, et al. Local anesthetic lidocaine inhibits TRPM7 current and TRPM7-mediated zinc toxicity. CNS Neurosci Ther 2015; 21: 32-9.]. The use of mice for neuronal cultures was approved by the Institutional Animal Care and Use Committee of Morehouse School of Medicine. Briefly, the brains of fetuses (embryonic day 16) were removed quickly from anesthetized pregnant Swiss mice and placed in cold Ca2+/Mg2+-free PBS. Cerebral cortices were dissected and incubated with 0.05% trypsin-EDTA for 10 min at 37° C., followed by trituration. Cells were plated in 35-mm poly-L-ornithine-coated culture dishes at a density of 1×10^6 cells. […]
(§2) LDH release was measured using a cytotoxicity detection kit (Cat. No. 11644793001, Roche Diagnostics) according to the manufacturer's instruction, as described in previous studies [Leng T D, Lin J, Sun H W, Zeng Z, O'Bryant Z, Inoue K, et al. Local anesthetic lidocaine inhibits TRPM7 current and TRPM7-mediated zinc toxicity. […] The absorbance at 492 and 620 nm was measured by spectrometer (SpectraMax Plus, Molecular devices, Sunnyvale, CA, USA). LDH release was determined based on subtracting absorbance at 620 nm from that at 492 nm.

[3] = test system: primary cultured mouse cortical neurons; assay: OGD toxicity (neuronal loss, LDH release); format: cell-based; conditions: MK-801
Description: as §1, §2

[4] = test system: NMDA receptor; conditions: cited from earlier work
[5] = test system: select neurons; conditions: cited from earlier work
[6] = test system: MCAO induced ischemic brain injury; assay: MCAO ischemic stroke model, TTC staining; format: in vivo, mice; conditions: ICV 40 μM stock, 1 μl, 3 h before 45 min MCAO, TTC at 24 h
[7] = molecular target: CYP46A1 (Homo sapiens, UniProt Q9Y6A2); conditions: cited from earlier work
[8] = test system: 5XFAD mice; assay: Alzheimer's disease model in 5XFAD mice; conditions: 5XFAD test mice
Description: 5XFAD mice are obtained. 5XFAD transgenic mice express 5 human familial Alzheimer's disease (FAD) mutants in amyloid-beta precursor protein (APP) and presenilin 1 (PS1) driven by the Thy1 promoter. […] Experimental 5XFAD mice are obtained by crossing heterozygous transgenic mice with C57BL/6 wild-type breeders. Wild-type littermates are used as controls and randomly allotted to each experiment. Male mice are used in all experiments. All mice are housed in a standard animal facility with a 12 h alternating light/dark cycle.
Control mice are administered a placebo.
A Barns maze protocol is performed. Briefly, the apparatus is a revolvable white acrylic disc elevated from the floor with 18 holes equally spaced along the perimeter of the circle and positioned in a brightly light. One hole is selected as the escape target hole, and a dark escape chamber is placed under the target hole consistent for each trial. Mice are allowed to freely explore on the platform for 5 min without the escape chamber, and habituated to the escape chamber for 2 min on two consecutive days. In the training phase, a session of 2 trials is performed by each mouse. Each mouse is covered under a nontransparent cylinder placed in the center of the maze. After 15 s, the cylinder is gently removed to allow mouse to explore the maze for 180 s until the target hole is found. […] The maze and the escape chamber are wiped with 70% ethanol. The mouse is identified to find the target chamber when the back of the mice crossed the target hole. The mouse is considered to have entered the target chamber if the entire body is on the platform. The primary latency that mice took to find the target hole is documented for each trial. Two trials per day are performed for eight days. For the probe test, memory retention is assessed 5 days after the last training trial. The duration of the probe trial is 90 s. […] The position of the target hole is the same as that in the training period. The primary latency to find the target hole and time in the target quadrant is analyzed by Anymaze software.
A T maze protocol is performed. Briefly, before performing the task, the diet of mice is restricted daily to hold 80% to 85% of their primary body weight throughout the task. The T maze apparatus is placed in a quiet room, and light intensity is held at a constant level. During the training, a forced choice is followed by a free choice for each trial. In the forced-choice phase, a food pellet is placed in either the left or right choice arm. The door to the choice arm with food pellet is opened, while the other choice arm is closed. The mouse is allowed to consume the pellet. When the pellet is consumed, the mouse is returned to the start arm. After the forced choice is completed, the free choice is initialized. During the free choice, all doors are open; the mouse is allowed to freely enter one of two arms. If the mouse entered the same arm as in the forced-choice phase, the trial is considered to result in an “error,” and the pellet is removed. If the mouse entered the opposite arm as in the forced-choice phase, the trial is considered to have a “correct” result, and the mouse is rewarded with a food pellet. Following each session, the apparatus is cleaned with 70% ethanol. Six consecutive trials are performed in a session per day. The percentage of correct responses is calculated in each session.
Motor activity and anxiety is studied in the open field test. […] The mouse activity is monitored under an infrared camera for 5 min.

CYP46A, sequence (Q9Y6A2 whole entry): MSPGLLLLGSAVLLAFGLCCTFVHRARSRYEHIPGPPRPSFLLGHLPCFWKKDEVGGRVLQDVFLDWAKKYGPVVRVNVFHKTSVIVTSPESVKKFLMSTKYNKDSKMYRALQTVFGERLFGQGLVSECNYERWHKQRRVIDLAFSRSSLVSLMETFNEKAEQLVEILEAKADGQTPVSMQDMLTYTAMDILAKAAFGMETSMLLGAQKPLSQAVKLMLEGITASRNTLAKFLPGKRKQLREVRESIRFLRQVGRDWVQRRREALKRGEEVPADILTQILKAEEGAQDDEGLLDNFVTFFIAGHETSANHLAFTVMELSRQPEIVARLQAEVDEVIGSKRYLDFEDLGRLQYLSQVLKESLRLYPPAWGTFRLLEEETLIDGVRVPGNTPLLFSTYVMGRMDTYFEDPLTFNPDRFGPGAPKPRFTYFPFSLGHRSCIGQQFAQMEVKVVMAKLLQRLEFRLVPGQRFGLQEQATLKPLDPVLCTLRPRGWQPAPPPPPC
CYP46A1, sequence (Q9Y6A2 whole entry, species assumed): as the sequence (Q9Y6A2 whole entry) above

N[C@@H]1C[C@H]1c1ccccc1 (racemic) [tranylcypromine]
affinity for CYP46A [1]: nanomolar affinity

C[C@]12N[C@H](Cc3ccccc31)c1ccccc12 [MK-801, dizocilpine]
inhibition of 24S-HC increased NMDA toxicity [2]: completely inhibited | inhibition of 24S-HC increased NMDA toxicity ([2]; listed as MK801): completely abolishes the toxicity of 24S-HC | inhibition of 24S-HC increased OGD toxicity [3]: completely inhibited | inhibition of 24S-HC increased OGD toxicity ([3]; listed as MK801): completely abolishes the toxicity of 24S-HC | Aβ[1-42]-triggered excitotoxicity via the NMDA receptor [4]: can be prevented | cytoplasmic vacuoles in select neurons [5]: causes cytoplasmic vacuoles in select neurons

Clc1ccccc1C(c1ccccc1)(c1ccccc1)n1ccnc1 [clotrimazole]
affinity for CYP46A [1]: nanomolar affinity

S=C(NC1CCCCC1)N1CCC(c2cnc[nH]2)CC1 [thioperamide]
affinity for CYP46A [1]: nanomolar affinity

C[C@@H](c1ncncc1F)[C@](O)(Cn1cncn1)c1ccc(F)cc1F [voriconazole]
ischemic brain injury (infarction, TTC staining) [6]: reduces ischemic brain injury | ischemic brain injury (infarction, TTC staining) ([6]; listed as Vori): dramatically reduced ischemic brain injury; also recorded: protects against 45 min MCAO induced ischemic brain injury | affinity for CYP46A [1]: nanomolar affinity | synthesis of 24S-HC in vitro ([7]; at ˜1 M (so in the source)): almost completely inhibit | inhibitor of CYP46A1 [7]: potent inhibitor | Aβ deposition [8]: attenuate Aβ deposition | cognitive functions [8]: improve cognitive functions | microgliosis [8]: decrease microgliosis | neuroinflammation [8]: reduce neuroinflammation | synapse loss and neuronal loss [8]: reversed
